# In US20200338028A1, “BENZENESULFONAMIDE DERIVATIVES AND METHOD FOR MODULATING LIPID RAFT” (Gongwin Biopharm Co., Ltd., priority 2017, published 2020):
# Columns and labels:
# Type in all cases: cell-based, human
# PC-3 cells [1] = experiment: lipid raft isolation (sucrose gradient) and Western blot of raft-associated kinases; conditions: PC-3, 6 mM p-TSA, 2 h
# From the text: (§1) Lipid rafts are plasma membranes of cells containing glycosphingolipids and a number of receptors arranged in specific glycolipoprotein microdomains which serve as organizing centers to gather signaling molecules, membrane fluid and protein trafficking for a variety of cellular processes. […] To examine the effect of lipid raft on p-TSA action, lipid rafts were isolated from whole cells by sucrose gradient fractionation with subsequent analysis of several serine/threonine kinases localization in raft fractions by immunoblotting. The detailed method for lipid raft isolation was performed as follows. Lipid rafts were isolated using lysis conditions and centrifugation on discontinuous sucrose gradients. Briefly, after the treatment of cells with or without p-TSA, the cells were washed with ice-cold PBS and lysed for 30 min on ice with 1% Triton X-100 in TNEV buffer (10 mM Tris-HCl, pH 7.5, 150 mM NaCl, 5 mM EDTA, 1 mM Na3VO4 and 1 mM PMSF). Cells were homogenized with 15 strokes with a Biovision tissue homogenizer. After centrifuging at 200 g for 8 min, the nuclei and cellular debris were pelleted and 400 μl supernatant was mixed with 400 μl 85% (w/v) sucrose in TNEV buffer, and then transferred to the bottom of a Beckman 13×51 mm centrifuge tube. The diluted lysate was overlaid with 2.4 ml 35% (w/v) sucrose in TNEV buffer and finally 1.4 ml 5% (w/v) sucrose in TNEV buffer. The samples were centrifuged in an SW55 rotor at 200,000 g for 18 h at 4° C. in a Beckman Optima L100K ultracentrifuge (Beckman Instruments, Palo Alto, Calif., United States). Then, fractions in each volume of 350 μl were collected from the top gradient. 15 μl of each fraction was subjected to Western blot analysis to determine the location of target proteins in the discontinuous sucrose gradient.
# DU-145 cells [2] = experiment: as above; conditions: DU-145, 6 mM p-TSA, 2 h
# From the text: as §1
# DU-145 cells [3] = experiment: colony formation (clonogenic) assay; conditions: DU-145, 10 days, FIG. 1B
# Description: To assay the anchorage-dependent clonogenic effect, each individual PC-3 and DU-145 cells (150 cells/well) were seeded in a 6-well plate. After a 10-day treatment with p-TSA, the cell colonies were rinsed with phosphate-buffered saline (PBS), stained with 0.4% (w/v) crystal violet dissolved in 20% methanol, and lysed by 50 mM sodium citrate dissolved in 50% ethanol. The absorbance was read at a wavelength of 595 nm.
# normal prostate cells = experiment: SRB assay, anti-proliferative effect; conditions: primary prostate cells, compared with CRPC cells, FIG. 1A
# Description: Two castration-resistant prostate cancer (CRPC) cell lines of PC-3 and DU-145 were cultured in RPMI 1640 medium with 5% FBS (v/v), penicillin (100 units/ml) and streptomycin (100 μg/ml). Cultures were maintained in a 37° C. incubator with 5% CO2, and adherent cultures were passaged using 0.05% trypsin-EDTA when they reached about 80% confluence. Prostate cells were from human tissue samples which were obtained following informed consent of the donors and after full review by the Ethics Review Committee at National Taiwan University Hospital. The prostate specimens were from males by transurethral resection of the prostate. All patients with prostatism histories were diagnosed to have benign prostate hyperplasia by rectal digital examination, transrectal sonography of prostate and urodynamic studies. […] SRB assay is an accurate and reproducible assay based upon quantitative SRB staining of cellular proteins, and the process for SRB assay was performed as follows. […] The absorbance of SRB was measured at a wavelength of 515 nm at the time of p-TSA addition (hereinafter referred to as time zero, TZ), and after additional incubation of DMSO (hereinafter referred to as control growth, CTL) or p-TSA (hereinafter referred to as Tx). The percentage of cell growth inhibition was calculated by the formula of [1−(Tx−TZ)/(CTL−TZ)]×100%. […]
# PC-3 cells [4] = experiment: CFSE staining, flow cytometric proliferation index; conditions: PC-3, 48 h
# Description: (§2) The anti-proliferative effect was further examined by CFSE staining. CFSE is a fluorescent cell staining dye for cell-tracking, and it was conjugated to intracellular proteins and was evenly inherited by divided cells after cell proliferation. Consequently, the fluorescence-staining was distributed to later generations of cells with the passage of time. The process for CFSE staining was performed as follows. CFSE was dissolved in DMSO to constitute a storage solution of 10 mM and was kept at −20° C. until use. The PC-3 and DU-145 cells were adjusted to a density of 10^6 cells/ml and were treated with CFSE at a final concentration of 10 μM in tubes. After incubation at 37° C. for 10 min, labeling was blocked by the addition of RPMI medium with 10% FBS. The tubes were placed on ice for 5 min and then washed. After centrifugation of the tubes, the cells were seeded in RPMI medium with 10% FCS in the absence or presence of p-TSA for 48 h at 37° C. under 5% CO2/95% air condition. The fluorescence intensity was determined by flow cytometric analysis. The cell proliferation was assessed by monitoring the decrease in label intensity in daughter cells. The proliferation index and the cell populations of parent or different generations were calculated by using Modfit LT Version 3.2 and WinList Version 5.0 software.
# DU-145 cells [5] = experiment: CFSE staining, flow cytometric proliferation index; conditions: DU-145, 48 h
# Description: as §2
structure (smiles),measurement,setting,value
"Cc1ccc(S(N)(=O)=O)cc1 [p-TSA, para-toluenesulfonamide]","expressions of raft-associated total and phosphorylated kinases (Akt, mTOR, p70S6K)",PC-3 cells [1],decreased expressions
same,raft-associated phosphorylated p70S6K expression,PC-3 cells [1],completely abolished
same,"expressions of raft-associated total and phosphorylated kinases (Akt, mTOR, p70S6K)",DU-145 cells [2],decreased expressions
same,raft-associated phosphorylated p70S6K expression,DU-145 cells [2],completely abolished
same,"anti-proliferative effect, clonogenic assay",DU-145 cells [3],long-term anti-proliferative effect
same,anti-proliferative activity in normal prostate cells,normal prostate cells,lower anti-proliferative activity
same,proliferation index based on CFSE staining,PC-3 cells [4],concentration-dependent inhibition
same,proliferation index based on CFSE staining,DU-145 cells [5],concentration-dependent inhibition
